Assay type in all cases: cell-based
The test system of assay [1] is Chlorella vulgaris. On the procedure: The algae concentration was 5×10^6 cells/mL (100 μL of algae within 2 mL of aqueous solution (i.e. distilled water)) containing the substance to detect at indicated concentrations. For each substances, 5 concentrations in triplicates were tested. The TOXSTAT™ software was used to calculate from inhibition values and standard deviations obtained, the maximum concentration without observable effect and the minimal concentration with observable effects. The threshold was calculated with the following formula: (maximum concentration without observable effect x minimal concentration with observable effects)^1/2 (See Table 2 below). The temperature was controlled by a thermostatic bath.
(§1) The detection threshold was obtained with the geometric mean. It was calculated with the following formula: Detection threshold=(CSEO×CMEO)^1/2 where
(§2) CMEO=minimal concentration resulting in a detectable inhibition of the algae efficacy.
(§3) CSEO and CMEO were estimated by a variance analysis ANNOVA™ followed by a Dunnett multiple comparison by comparing the mean efficacy of each tested concentration with the control mean. Calculations were performed with TOXSTAT™ (Version 3.5).

Assay [2] relates to Chlorella vulgaris. The experiment in a line: Stability of F2 fluorescence of Chlorella vulgaris incubated with additives. On the procedure:
F2 fluorescence levels produced by Chlorella vulgaris prepared as described in Example 1 above was measured after incubation with additives tested above, namely cadmium (0.5 ppm), cadmium (1 ppm), copper (0.1 ppm) and copper (0.25 ppm). As may be seen in FIG. 8, F2 fluorescence was stable after up to 120 minutes of incubation for each of these additives.

The test system of assay [3] is Chlorella vulgaris. The protocol: A Chlorella vulgaris culture was prepared as described in Example 1 above. As indicated in Example 1, the algae were reactivated before testing under ambient light and at room temperature during 90 minutes.
The formulation was then incubated under ambient light at 35° C. and at neutral pH with cadmium, copper, chromium, zinc, nickel, or lead, at indicated concentrations at incubation times varying between 15 minutes and 120 minutes. (FIGS. 9 to 12). The formulations were tested without additives or with 1 ppm cadmium, 0.1 ppm copper or 0.25 ppm copper as additive. The cellular concentration was 2.5×10^6 cells/mL (50 μL of algae within 2 mL of metal containing aqueous solution (i.e. distilled water)). Testing was performed in triplicates. The fluorescence emitted by each formulation was then measured with Luminotox™, a fluorometer that measures photosynthetic activity.
This is another data set of the same source.

In another assay the test system is Dunaliella tertiolecta. Particulars: 15 min. green light exposition at room temperature. On the procedure:
as §1, §2, §3
A Dunaliella tertiolecta culture was prepared as described in Example 2 above. As indicated in Example 2, the algae were reactivated before testing under ambient light and at room temperature during 45 minutes.
The algae formulations were then incubated for 15 minutes with water containing one of the various contaminants listed in Table 2 below at neutral pH under green light and at room temperature. The algae concentration was 350 000 cells/mL (500 μL of algae within 2 mL of aqueous solution (i.e. distilled water) containing substance to detect at indicated concentrations). For each substances, 5 concentrations in triplicates were tested. The TOXSTAT™ software was used to calculate from inhibition values and standard deviations obtained, the maximum concentration without observable effect and the minimal concentration with observable effects (See Table 2 below). The temperature was controlled by a thermostatic bath. Tests were performed in triplicates. The fluorescence emitted by each formulation was then measured with Luminotox™, a fluorometer that measures photosynthetic activity and detection threshold determined as described in the Example above.

Another assay relates to Anabaena sp. The experiment in a line: Detection of bioactive molecules with Anabaena sp.: inhibition of photosynthetic fluorescence (Luminotox). The conditions noted are these: 1 ppm, neutral pH; for inhibition at 1 ppm: 10 min. The protocol:
The photosynthetic efficiency is determined with the following formula (F2−F1)/F2. Any molecule affecting directly or indirectly the photosystems modify either F1 or F2 which modification necessarily decreases the photosynthetic efficiency. The inhibition curve of a particular molecule is determined by calculating the activity of the photosystems in the absence of the molecule and in the presence of the molecule and comparing both efficiency as follows as described in Conrad 1993:
Without Inhibitor (wi): efficiency(wi)=(F2(wi)−F1(wi)/F2(wi) With Inhibitor: Relative photosynthetic efficiency(sample)=(F2(sample)−F1(sample))/F2(wi) Percentage Efficiency: efficiency (%)=(efficiency(sample)×100)/efficiency(wi) Percentage Inhibition: Inhibition (%)=100−efficiency (%)
An Anabaena sp. culture was prepared as described in Example 3 above. As indicated in Example 3, the cyanobacteria were reactivated before testing under ambient light and at room temperature during 60 minutes.
The culture was then incubated with bioactive molecules listed in Table 1 below at concentrations of 1 ppm (except for atrazine which was used at a concentration of 1 ppb) for 10 minutes under ambient light followed by 10 minutes under green light and neutral pH. The cellular concentration was 1.0×10^7 cells/mL (100 μL of cyanobacteria within 2 mL of bioactive agent containing aqueous solution (i.e. distilled water)). Testing was performed in triplicates. The fluorescence emitted by each formulation was then measured with Luminotox™ a fluorometer that measures photosynthetic activity.

Assay [4] has as its system Chlorella vulgaris. The experiment in a line: Effect of pH on detection of ammoniacal nitrogen with Chlorella vulgaris. The conditions noted are these: for Concentration of NH3 at which 20% inhibition was achieved: 10 min green light, room temperature. The protocol:
A Chlorella vulgaris culture was prepared as described in Example 1 above. As indicated above, the algae were reactivated before testing during 90 minutes under ambient light and at room temperature.
The culture was then incubated with ammoniacal nitrogen for 10 minutes under green light and at room temperature. The desired pH was achieved by adding NaOH to a glycine 20 mM buffer. The cellular concentration of the algae was 5×10^6 cells/mL of solution (100 μL algae in 2 mL of ammoniacal nitrogen containing aqueous solution (i.e. distilled water)). Testing was performed in triplicates. The fluorescence emitted by each formulation was then measured with Luminotox™, a fluorometer that measures photosynthetic activity. Although the Luminotox™ was used in Examples presented herein, any fluorometer able to measure […] can be used in accordance with the present invention.

Setting [5] is: 10-15 min. exposition to ambiant light at 35° C., neutral pH (pH 7), 5×10^6 cells/mL.
[6] abbreviates: neutral pH (pH 7), 350 000 cells/mL.
Where [7] appears, read: 10 min ambient light followed by 10 min green light.
Setting [8] is: 10 min ambient light, 1.0×10^7 cells/mL.
Setting [9] is: 10 min ambient light followed by 10 min green light, read-out: Inhibition obtained at 1 ppm (followed by 10 min green light).
The mark [10] stands for this setting: 10 min ambient light, 1.0×10^7 cells/mL, read-out: Inhibition obtained at 1 ppm (10 min ambiant light).

Like-named read-outs stand apart in the source and are kept apart here.

In the assay on Chlorella vulgaris [1] (setting [5]), `[Cd]` [Cd, Cadmium] had a Detection threshold of 0.3 ppm. Also, the “F2 fluorescence over time” value with Chlorella vulgaris [2] (0.5 ppm, up to 120 minutes of incubation) is given as “stable”; in the assay on Chlorella vulgaris [2] (1 ppm, after 120 minutes of incubation), “decrease of fluorescence”. The Detection entry with Chlorella vulgaris [3] (1 ppm alone, 15 minutes of incubation) is on record as “not detected”; in the assay with Chlorella vulgaris [3] (1 ppm, 60 minutes of incubation, without additive) it was “detected although weakly”.
`[Cr]` [Cr, Chrome]: in the assay on Chlorella vulgaris [3] (0.1 ppm, 60 minutes of incubation, without additive), the Detection entry is “detected although weakly”.
For the compound `CN(C)C(=O)Nc1ccc(Cl)c(Cl)c1` [Diuron], the Detection threshold with Chlorella vulgaris [1] (setting [5]) was 0.006 ppm; in the assay on Chlorella vulgaris [1] (10-15 min. green light exposition at room temperature, neutral pH (pH 7), 5×10^6 cells/mL), less than 0.0005 ppm; with Chlorella vulgaris [1] (10-15 min. green light exposition at room temperature, neutral pH (pH 7), 5×10^6 cells/mL, listed as diuron), “lower than 0.0005 ppm”; in the assay with Dunaliella tertiolecta (setting [6]) it was 0.002 ppm.
`CNC(=O)O/N=C/C(C)(C)SC` [aldicarbe]: the “Inhibition obtained at 1 ppm (followed by 10 min green light)” value with Anabaena sp. (setting [7]) is 30%. Besides, the “Inhibition obtained at 1 ppm (10 min ambiant light)” value with Anabaena sp. (setting [8]) is 0%.
In the case of `CC(C)N1C(=O)c2ccccc2NS1(=O)=O` [bentazone], the inhibition at 1 ppm in the assay on Anabaena sp. (setting [9]) came out at 28%; with Anabaena sp. (setting [10]), 0%.
For the compound `CCOP(=S)(OCC)Oc1nc(Cl)c(Cl)cc1Cl` [chlorpyrifos], the Detection threshold with Chlorella vulgaris [1] (setting [5]) and in the assay on Dunaliella tertiolecta (setting [6]) was 1 ppm each time. In addition, the inhibition at 1 ppm with Anabaena sp. (setting [9]) came to 10%; with Anabaena sp. (setting [10]) it was 0%.
As for `COP(=O)(OC)O/C(C)=C/C(=O)N(C)C` [dicrotophos], the inhibition at 1 ppm in the assay with Anabaena sp. (setting [9]) turned out to be 17%; with Anabaena sp. (setting [10]) it was 2%. The compound also came in with a Detection threshold in the assay with Dunaliella tertiolecta (setting [6]) of 235 ppm.
As to `O=C(O)CNCP(=O)(O)O` [glyphosate], the results for the Detection threshold in the assay with Chlorella vulgaris [1] (setting [5]) and in the assay with Dunaliella tertiolecta (setting [6]) were 100 ppm and 50 ppm, respectively. For the same compound, the inhibition at 1 ppm came to 7% in the assay on Anabaena sp. (setting [9]) and 0% in the assay with Anabaena sp. (setting [10]).
Turning to `CCOC(=O)CC(SP(=S)(OC)OC)C(=O)OCC` (stereo not shown) [malathion], the inhibition at 1 ppm was determined as 17% with Anabaena sp. (setting [9]) and 0% with Anabaena sp. (setting [10]). The compound also yielded a Detection threshold with Dunaliella tertiolecta (setting [6]) of 50 ppm.
In the case of `CCc1cccc(C)c1N(C(=O)CCl)C(C)COC` (stereo not shown) [metolachlor], the inhibition at 1 ppm turned out to be 22% with Anabaena sp. (setting [9]) and 0% in the assay on Anabaena sp. (setting [10]).
In the case of `[Ni]` [nickel], the Detection entry in the assay on Chlorella vulgaris [3] (1 ppm, 120 minutes of incubation) is given as “weakly detected”.
On to Ammonia nitrogen, for which the Detection threshold in the assay on Chlorella vulgaris [1] (pH 11, 10-15 min. exposition to ambiant light at 35° C.) amounted to 1 ppm at pH 11; in the assay with Chlorella vulgaris [1] (pH 11, 10-15 min. green light exposition at room temperature) it was 1 ppm at pH 11; in the assay with Dunaliella tertiolecta (pH 11) it was 1 ppm at pH 11; with Chlorella vulgaris [4] (pH up to 11), 1 ppm. Also, the “Concentration at which the compound is detected” value in the assay with Chlorella vulgaris [4] (neutral pH) is 100 ppm. Also, the “Concentration of NH3 at which 20% inhibition was achieved” value in the assay on Chlorella vulgaris [4] (pH 7) is reported as 100 ppm; with Chlorella vulgaris [4] (pH 9), 5 ppm; in the assay with Chlorella vulgaris [4] (pH 11) it was “lower than 2 ppm”; in the assay on Chlorella vulgaris [4] (pH 12), “lower than 2 ppm”.
As for Mercury [Hg], the Detection threshold in the assay with Chlorella vulgaris [1] (setting [5]) is 0.22 ppm.
In the assay with Chlorella vulgaris [1] (setting [5]), cyanure yielded a Detection threshold of 0.16 ppm. Also, in the assay with Anabaena sp. (setting [7]), the “Inhibition obtained at 1 ppm (followed by 10 min green light)” value is recorded as 16%. For the same compound, the “Inhibition obtained at 1 ppm (10 min ambiant light)” value in the assay with Anabaena sp. (setting [8]) was determined as 0%.
Turning to gramicidine, the “Inhibition obtained at 1 ppm (followed by 10 min green light)” value with Anabaena sp. (setting [7]) is reported as 15%. The “Inhibition obtained at 1 ppm (10 min ambiant light)” value with Anabaena sp. (setting [8]) was found to be 0%.

What is called inhibition is the change of the read-out against control, counted positive when it falls.

For the origin of these results see patent US8652799B2, “Method of detecting bioactive molecules in a fluid sample” (priority 2008, dated 2014).
